Key:
[1] = system: patients with Relapsing-remitting Multiple Sclerosis; assay: Study of oral fingolimod 0.5 mg/day or 1.25 mg/day vs interferon beta1-a in patients with RRMS; assay type: in vivo, human
Description: The patients are seen clinically every month for 3 months and every 3 months thereafter. The Expanded Disability Status Scale (EDSS) is performed every 3 months, the MS Functional Composite (MSFC) every 6 months, and MRI annually. Monitoring by ophthalmic examination, dermatologic examination, pulmonary function tests, chest X-ray and/or CT, Holter monitoring, and echocardiography are performed. Participants who completed 1 year on treatment are offered an optional extension phase.

[2] = system: Patients with moderate asthma; assay: Study of FTY720 vs placebo in patients with moderate asthma (pulmonary function tests, safety); assay type: in vivo, human; details: daily dosage of 0.5 mg, 10 day treatment
Description: Patients with moderate asthma are divided into 3 dosing cohorts of 12 patients each. In each cohort, the 12 patients are randomized to FTY720 (0.5 mg, 1.25 mg, and 2.5 mg in cohorts 1, 2, and 3 respectively) or placebo in a 3:1 ratio resulting in 9 patients treated with FTY720 at each dose level and 9 patients treated with placebo. The study consists of a screening period of between 12 and 26 days, baseline and a 10 day treatment period followed by a study completion evaluation (performed 1-7 days after the last dose). Two screening visits are performed, the initial Screening visit and a second visit at Day −7 (+/−1 day). […] Short-acting […] agonist use prior to treatment with study medication is also recorded in this 14 day period. […] PFT profiling is assessed at 7 time points during the visit and routine baseline evaluations are performed. On Day 1, patients are randomized in a 3:1 ratio to FTY720 or placebo and PFT profiling is assessed at 8 time points (namely pre-dose, then at 1, 2, 3, 4, 5, 6 and 12 hours post-dose). PFT assessments are also performed on Days 2, 3, 7 (all single time points assessed at approximately the same clock time as the 6 hours post-dose PFT on Day 1) and Day 10 (7 time points, namely pre-dose and then at 1, 2, 3, 4, 5 and 6 hours post-dose). […] The magnitude of the bronchoconstriction is primarily assessed by the baseline-adjusted FEV1 AUC0-6 h on Day 1. […]

[3] = system: Cardiac Rate and Rhythm in Healthy Patients; details: administration of 1.25 mg of FTY720; healthy subjects; cited from earlier work
[4] = both fingolimod groups (0.5 and 1.25 mg/day), month 12

Basal-cell carcinoma ([1]; fingolimod 0.5 mg/d): 3 (0.7) n (%)
Breast cancer ([1]; fingolimod 0.5 mg/d): 2 (0.5) n (%)
Malignant melanoma ([1]; fingolimod 0.5 mg/d): 3 (0.7) n (%)
Squamous-cell carcinoma ([1]; fingolimod 0.5 mg/d): 0 n (%)
Basal-cell carcinoma ([1]; fingolimod 1.25 mg/day): 2 (0.5) n (%)
Breast cancer ([1]; fingolimod 1.25 mg/day): 2 (0.5) n (%)
Malignant melanoma ([1]; fingolimod 1.25 mg/day): 0 n (%)
Squamous-cell carcinoma ([1]; fingolimod 1.25 mg/day): 0 n (%)
Structure (SMILES): CCCCCCCCc1ccc(CCC(N)(CO)CO)cc1.Cl [Fingolimod, 2-amino-2-[2-(4-octylphenyl)ethyl]propane-1,3-diol]
proportion of relapse-free patients ([1]; RRMS patients, fingolimod, dose not stated): 83%
reduction in relapses vs interferon beta1-a ([1]; RRMS patients, higher dose (1.25 mg/day)): 38%
reduction in relapses vs interferon beta1-a ([1]; RRMS patients, lower dose (0.5 mg/day)): 52%
Annualized relapse rate ([1]; RRMS patients, oral fingolimod 0.5 mg/day): 0.16
Annualized relapse rate ([1]; RRMS patients, oral fingolimod 1.25 mg/day): 0.20
MRI lesion activity: number of gadolinium-enhancing T1 lesions [1, 4]: reduction
MRI lesion activity: number of new or newly enlarging T2 lesions [1, 4]: reduction
safety and tolerability [2]: safe and well tolerated
decrease in heart rate [3]: approximately 8 beets/min
